Converted amounts (≈) assume the structure as drawn.
Key:
PIM2 = PIM2 (Homo sapiens, UniProt Q9P1W9); test: Radiometric kinase assay (HotSpot); conditions: for Selectivity for Pim-2 over CK2α: ratio of IC50 values
[1] = test system: human acute myeloid leukemia MOLM-13 cells; test: Growth inhibition test (MTS); assay type: cell-based; conditions: Homo sapiens, MOLM-13; MOLM13; 72 hours; read-out: Cytotoxicity in MTS assay (ED50)
Procedure: (§1) Ten thousand cells of acute myeloid leukemia MOLM-13 were inoculated into each well of a 96-well microplate (manufactured by Corning Corp.) using RPMI 8226 medium (culture medium) containing 10% fetal calf serum (FCS). The same day, a dimethyl sulfoxide (DMSO) solution of each test compound prepared in a concentration of 10 mmol/L was further diluted with DMSO to the desired concentrations (0.1, 0.5, 1, 2.5, 5 and 10 micromol/L), and the diluted solution was added to each well. The individual wells were further cultured in 5% carbon dioxide at 37° C. for 72 hours. After completion of the culture, 10 μl MTS (3-(4,5-Dimethyl-2-thiazolyl)-5-(carboxymethoxyphenyl)-2-(4-sulfophenyl)-2H-tetrazolium, inner salt assay (CellTiter96® AQueous One Solution Cell Proliferation Assay, Promega) was added to each well, and culturing was performed in 5% carbon dioxide at 37° C. for 2 hours. Using a microplate spectrophotometer (Synergy 2 multi-mode microplate reader (BioTek)), the absorbance of each well was measured at 490 nm. The value for cells not incorporated with a test compound was designated as 100%. By comparing these values with the absorbance difference obtained at the well in which each test compound was added, the cell viability (% viability) after treatment with the test compound was calculated.

[2] = test system: human acute lymphocytic leukemia E6.1 Jurkat cells; test: Growth inhibition test (MTS); assay type: cell-based; conditions: Homo sapiens, 72 hours, read-out: Cytotoxicity in MTS assay (ED50)
Procedure: (§2) Twenty thousand cells of human acute lumphocytic leukemia E6.1 Jurkat were inoculated into each well of a 96-well microplate (manufactured by Corning Corp.) using RPMI 8226 medium (culture medium) containing 10% fetal calf serum (FCS). The same day, a dimethyl sulfoxide (DMSO) solution of each test compound prepared in a concentration of 10 mmol/L was further diluted with DMSO to the desired concentrations (0.1, 0.5, 1, 2.5, 5 and 10 micromol/L), and the diluted solution was added to each well. The individual wells were further cultured in 5% carbon dioxide at 37° C. for 72 hours. After completion of the culture, 10 μl MTS (3-(4,5-Dimethyl-2-thiazolyl)-5-(carboxymethoxyphenyl)-2-(4-sulfophenyl)-2H-tetrazolium, inner salt assay (CellTiter96® AQueous One Solution Cell Proliferation Assay, Promega) was added to each well, and culturing was performed in 5% carbon dioxide at 37° C. for 2 hours. Using a microplate spectrophotometer (Synergy 2 multi-mode microplate reader (BioTek)), the absorbance of each well was measured at 490 nm. The value for cells not incorporated with a test compound was designated as 100%. By comparing these values with the absorbance difference obtained at the well in which each test compound was added, the cell viability (% viability) after treatment with the test compound was calculated.

[3] = test system: human myelomonocytic, biphenotypic leukemia MV4-11 cells; test: Growth inhibition test (MTS); assay type: cell-based; conditions: Homo sapiens, MV4-11; MV-4-11; 72 hours; read-out: Cytotoxicity in MTS assay (ED50)
Procedure: as §1, with “human myelomonocytic, biphenotypic” for “acute myeloid”, “MV4-11” for “MOLM-13”, “Iscove's MDM” for “RPMI 8226”

CK2α = CK2α (Homo sapiens, UniProt P68400); test: Radiometric kinase assay (HotSpot)
PIM1 = PIM1 (Homo sapiens, UniProt P11309); test: Radiometric kinase assay (HotSpot); conditions: for Selectivity for Pim-1 over CK2α: ratio of IC50 values
PIM3 = PIM3 (Homo sapiens, UniProt Q86V86); test: Radiometric kinase assay (HotSpot); conditions: for Selectivity for Pim-3 over CK2α: ratio of IC50 values
[4] = test system: human prostate adenocarcinoma PC3 cells; test: Growth inhibition test (MTS); assay type: cell-based; conditions: PC-3; 72 hours
Procedure: as §2, with “Two” for “Twenty”, “prostate adenocarcinoma PC3” for “acute lumphocytic leukemia E6.1 Jurkat”, “Corp.), and” for “Corp.)”, “F12K (Ham's F12:[…]” for “RPMI”, “[…] 1:1)” for “8226”

[5] = test system: human prostate carcinoma DU145 cells; test: Growth inhibition test (MTS); assay type: cell-based; conditions: 72 hours
Procedure: as §2, with “Two” for “Twenty”, “prostate carcinoma DU145” for “acute lumphocytic leukemia E6.1 Jurkat”, “Corp.), and” for “Corp.)”, “DMEM” for “RPMI 8226”, “innersalt” for “inner salt”

Solubility in pH 7.4 = conditions: phosphate buffer

Chain of PIM1 (P11309 whole entry): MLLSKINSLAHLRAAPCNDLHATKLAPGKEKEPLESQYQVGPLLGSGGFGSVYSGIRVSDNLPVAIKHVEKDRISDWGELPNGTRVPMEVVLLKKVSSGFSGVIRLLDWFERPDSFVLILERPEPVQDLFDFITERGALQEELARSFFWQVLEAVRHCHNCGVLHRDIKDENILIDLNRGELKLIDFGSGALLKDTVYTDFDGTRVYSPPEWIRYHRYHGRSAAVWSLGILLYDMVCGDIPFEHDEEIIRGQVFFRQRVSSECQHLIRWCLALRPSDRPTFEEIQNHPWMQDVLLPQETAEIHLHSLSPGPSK
Chain of PIM2 (Q9P1W9 whole entry): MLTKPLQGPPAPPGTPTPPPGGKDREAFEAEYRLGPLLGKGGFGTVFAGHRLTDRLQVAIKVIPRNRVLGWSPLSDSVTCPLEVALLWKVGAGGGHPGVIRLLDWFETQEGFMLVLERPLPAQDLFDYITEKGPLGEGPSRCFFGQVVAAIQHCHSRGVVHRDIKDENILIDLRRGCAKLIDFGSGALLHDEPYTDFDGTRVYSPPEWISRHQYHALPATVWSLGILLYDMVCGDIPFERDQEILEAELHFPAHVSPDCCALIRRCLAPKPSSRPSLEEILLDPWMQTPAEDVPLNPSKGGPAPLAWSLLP
Chain of CK2α (P68400 whole entry): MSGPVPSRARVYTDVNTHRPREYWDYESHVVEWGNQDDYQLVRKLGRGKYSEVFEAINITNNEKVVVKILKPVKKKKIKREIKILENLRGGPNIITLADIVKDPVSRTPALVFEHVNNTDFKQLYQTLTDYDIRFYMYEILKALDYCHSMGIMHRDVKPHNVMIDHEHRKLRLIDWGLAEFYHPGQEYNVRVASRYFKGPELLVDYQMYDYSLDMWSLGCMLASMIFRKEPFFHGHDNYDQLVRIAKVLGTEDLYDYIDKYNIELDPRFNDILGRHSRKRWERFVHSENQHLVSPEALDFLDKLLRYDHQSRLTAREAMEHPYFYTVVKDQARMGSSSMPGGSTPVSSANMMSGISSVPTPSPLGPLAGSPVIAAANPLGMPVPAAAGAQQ

| IC50 (PIM2) [µM] | Selectivity for Pim-2 over CK2α (PIM2) | IC50 (CK2α) [µM] | IC50 (PIM1) [µM] | Selectivity for Pim-1 over CK2α (PIM1) | IC50 (PIM3) [µM] | Selectivity for Pim-3 over CK2α (PIM3) | solubility at 24 h (Solubility in pH 7.4) [µM] | SMILES | IC50 [1] [µM] | IC50 [2] [µM] | IC50 [3] [µM] | Cytotoxicity in MTS assay (ED50) [4] [µM] | Cytotoxicity in MTS assay (ED50) [5] [µM] |
| --- | --- | --- | --- | --- | --- | --- | --- | --- | --- | --- | --- | --- | --- |
| 1.49 | 0.6 | 0.855 | 0.088 | 9.7 | 0.189 | 4.5 |  | Brc1c(Br)c(Br)c2[nH]c(NCCCN3CCCCC3)nc2c1Br [Compound 59, 4,5,6,7-tetrabromo-N-(3-(piperidin-1-yl)propyl)-1H-benzo[d]imidazol-2-amine] | 3.51 | 4.41 | 2.81 |  |  |
| 0.199 | 1.9 | 0.386 | 0.0052 | 74.2 | 0.0202 | 19.1 |  | NCCCCNc1nc2c(Br)c(Br)c(Br)c(Br)c2[nH]1 [Compound 61, N-(4-aminobutyl)-4,5,6,7-tetrabromo-1H-benzo[d]imidazol-2-amine] | 5.95 | 7.92 | 4.43 |  |  |
| 0.823 | 0.5 | 0.448 | 0.0871 | 5.1 | 0.0158 | 28.3 |  | Brc1c(Br)c(Br)c2[nH]c(NCCCn3ccnc3)nc2c1Br [Compound 65, N-(3-(1H-imidazol-1-yl)propyl)-4,5,6,7-tetrabromo-1H-benzo[d]imidazol-2-amine] | 6.88 | > 10 | > 10 | >10 | 7.72 |
| > 20 |  | 1.96 | 1.51 | 1.3 | 2.96 | 0.7 |  | Brc1c(Br)c(Br)c2[nH]c(Nc3ccccc3)nc2c1Br [Compound 79, 4,5,6,7-tetrabromo-N-phenyl-1H-benzo[d]imidazol-2-amine] | 5.96 | 9.06 | 4.4 |  |  |
| 1.55 | 0.5 | 0.734 | 0.547 | 1.3 | 0.68 | 1.1 |  | Nc1ccc(Nc2nc3c(Br)c(Br)c(Br)c(Br)c3[nH]2)cc1 [Compound 86, N1-(4,5,6,7-tetrabromo-1H-benzo[d]imidazol-2-yl)benzene-1,4-diamine] | 8.81 | 8.27 | 5.81 |  |  |
| 0.0903 | 1.2 | 0.11 | 0.0091 | 12.0 | 0.0076 | 14.4 | 72 (≈ 37.6 µg/mL) | NCC(O)CNc1nc2c(Br)c(Br)c(Br)c(Br)c2[nH]1 (centres unmarked) [Compound 90, 1-(4,5,6,7-tetrabromo-1H-benzo[d]imidazol-2-ylamino)-3-aminopropan-2-ol] | 6.91 | 5.78 | 2.12 |  |  |
